Results on 2 compounds are retold here after patent US6790992B2, “Scyphostatin analogues as SMase inhibitors” (Biofrontera Pharmaceuticals GmbH, priority 2002, dated 2004).

Structures are written as SMILES.

Data set [1] in a line: Chemical, acid and redox stability. It counts as physicochemical.
The next data set has as its system human monocytes. The experiment in a line: Antiapoptotic activity in TNFα-treated human monocytes (YOPRO-1 staining). It counts as cell-based. The note with it: pretreatment 30 min, 0.1 μm, then TNFα 4 hours; average of 5 experiments; values only in FIG. 3. The procedure:
In addition, part of the cells are pretreated with compound 13 (30 min., 0.1 μm). The percentage of apoptotic cells is determined in all of the samples by YOPRO-1 staining^10. Average values from 5 experiments.

Data set [2] deals with sphingomyleinase activity of mmLDL-stimulated monocytes. The experiment in a line: Sphingomyelinase activity in mmLDL-stimulated human monocytes. The format is cell-based. The note with it: compound 13 0.1-0 μm, 30 min pretreatment, then mmLDL 4 hours; average of 5 experiments; values only in FIG. 4. How it is done:
Average values from 5 individual experiments.
90 nM BODIPY-FL-C5 sphingomylein (molecular probes) are dissolved in 200 μl ethanol, then injected into 10 ml PBS containing 0.75 mg/ml BSA. The solution is dialyzed extensively against PBS, the resulting dialyzate is sterile-filtered and diluted 1:1 using RPMI medium. Together with the solution a monolayer of human monocytes' is incubated with 5% CO2 at 37° C. for 4 hours, washed twice with 5 ml PBS, admixed with new medium and then incubated at the corresponding concentrations of compound (13) for 30 minutes. The pretreated cells are treated with slightly modified low-density lipoprotein (mmLDL)^10 for 4 hours and extracted according to Bligh and Dyer^11. The enzyme activity is determined by the ratio of BODIPY-FL-C5—sphingomyelin to BODIPY-FL-C5 ceramide^12.

The conditions of data set [3]: background statement, cited from earlier work.

As to `CCCCCCCCCCCCCCCC(=O)N[C@H](CO)C[C@]1(O)CCC=CC1=O` [compound 13, hexadecanoic acid-[1-hydroxymethyl-2-(1-hydroxy-2-oxo-cyclohex-3-enyl)ethyl]amide], the “Chemical stability (e.g. stability in acidic solutions)” value in data set [1] (epoxide-free analogues, compared with natural scyphostatin) is “increased chemical stability”. For the same compound, the “Stability at pH 2” value in data set [1] (pH values of 2 at 40° C. for a period of several hours) is “stable”. For the same compound, the “Antiapoptotic activity (percentage of apoptotic cells)” value in the data set on human monocytes was “Antiapoptotic activity”. Also, the “Inhibitory effect on the sphingomyleinase activity” value in data set [2] is listed as “Inhibitory effect”.

With `CC[C@@H](C)/C=C(\C)C[C@@H](C)C[C@@H](C)/C=C/C=C/C=C/C(=O)N[C@H](CO)C[C@@]1(O)C(=O)C=C[C@@H]2O[C@@H]21` [scyphostatin], in data set [3] (natural scyphostatin), the “Chemical and metabolic stability” value was “chemically and metabolically very unstable”. In addition, the Stability in acid entry in data set [3] (natural substance) is on record as “unstable in acid”.
